Experimental data reported in ChEMBL document CHEMBL3797055, “Glabridin-chalcone hybrid molecules: drug resistance reversal agent against clinical isolates of methicillin-resistant Staphylococcus aureus” (Medchemcomm, 2016).
Values after ≈ are worked out from the molar mass of the structure shown.

Key:
Format in all cases: functional
Staphylococcus aureus [1] = assay: Antibacterial activity against clinical isolates of methicillin-resistant Staphylococcus aureus P4423 by broth microdilution assay
Staphylococcus aureus [2] = assay: Potentiation of norfloxacin-induced antibacterial activity against clinical isolates of methicillin-resistant Staphylococcus aureus P4423 assessed as norfloxacin MIC by checkerboard assay
Staphylococcus aureus [3] = assay: Antibacterial activity against clinical isolates of methicillin-resistant Staphylococcus aureus ST10760 by broth microdilution assay
Staphylococcus aureus [4] = assay: Antibacterial activity against clinical isolates of methicillin-resistant Staphylococcus aureus P4650 by broth microdilution assay
Staphylococcus aureus [5] = assay: Potentiation of norfloxacin-induced antibacterial activity against clinical isolates of methicillin-resistant Staphylococcus aureus ST10342 assessed as norfloxacin MIC by checkerboard assay
Staphylococcus aureus [6] = assay: Ratio of MIC for clinical isolates of methicillin-resistant Staphylococcus aureus ST10760 to MIC for clinical isolates of methicillin-resistant Staphylococcus aureus ST10760 in presence of norfloxacin
Staphylococcus aureus [7] = assay: Antibacterial activity against clinical isolates of methicillin-resistant Staphylococcus aureus ST10342 by broth microdilution assay
Staphylococcus aureus [8] = assay: Antibacterial activity against clinical isolates of methicillin-resistant Staphylococcus aureus ST10760 by checkerboard assay in presence of norfloxacin
Staphylococcus aureus [9] = assay: Antibacterial activity against clinical isolates of methicillin-resistant Staphylococcus aureus ST10342 by checkerboard assay in presence of norfloxacin
Staphylococcus aureus [10] = assay: Antibacterial activity against clinical isolates of methicillin-resistant Staphylococcus aureus P4629 by checkerboard assay in presence of norfloxacin
Staphylococcus aureus [11] = assay: Potentiation of norfloxacin-induced antibacterial activity against clinical isolates of methicillin-resistant Staphylococcus aureus P4629 assessed as norfloxacin MIC by checkerboard assay
Staphylococcus aureus [12] = assay: Bactericidal activity against clinical isolates of methicillin-resistant Staphylococcus aureus ST2071 assessed as reduction in viability at MIC after 24 hrs by time kill kinetic analysis relative to control
Staphylococcus aureus [13] = assay: Ratio of MIC for clinical isolates of methicillin-resistant Staphylococcus aureus P4423 to MIC for clinical isolates of methicillin-resistant Staphylococcus aureus P4423 in presence of norfloxacin
Staphylococcus aureus [14] = assay: Bactericidal activity against clinical isolates of methicillin-resistant Staphylococcus aureus ST2071 assessed as reduction in viability at 0.5 MIC after 24 hrs by time kill kinetic analysis in presence of norfloxacin relative to control
Staphylococcus aureus [15] = assay: Potentiation of norfloxacin-induced antibacterial activity against clinical isolates of methicillin-resistant Staphylococcus aureus P4650 assessed as reduction in norfloxacin MIC by checkerboard assay relative to control
Staphylococcus aureus [16] = assay: Potentiation of norfloxacin-induced antibacterial activity against clinical isolates of methicillin-resistant Staphylococcus aureus ST2071 assessed as norfloxacin MIC by checkerboard assay
Staphylococcus aureus [17] = assay: Potentiation of norfloxacin-induced antibacterial activity against clinical isolates of methicillin-resistant Staphylococcus aureus P4629 assessed as reduction in norfloxacin MIC by checkerboard assay relative to control
Staphylococcus aureus [18] = assay: Antibacterial activity against clinical isolates of methicillin-resistant Staphylococcus aureus P4423 by checkerboard assay in presence of norfloxacin
Staphylococcus aureus [19] = assay: Potentiation of norfloxacin-induced antibacterial activity against clinical isolates of methicillin-resistant Staphylococcus aureus ST10342 assessed as reduction in norfloxacin MIC by checkerboard assay relative to control
Staphylococcus aureus [20] = assay: Antibacterial activity against Staphylococcus aureus MTCC 96 by broth microdilution assay
Staphylococcus aureus [21] = assay: Antibacterial activity against clinical isolates of methicillin-resistant Staphylococcus aureus P4629 by broth microdilution assay
Staphylococcus aureus [22] = assay: Potentiation of norfloxacin-induced antibacterial activity against clinical isolates of methicillin-resistant Staphylococcus aureus ST2071 assessed as reduction in norfloxacin MIC by checkerboard assay relative to control
Staphylococcus aureus [23] = assay: Bactericidal activity against clinical isolates of methicillin-resistant Staphylococcus aureus ST2071 assessed as reduction in viability at 0.5 MIC after 24 hrs by time kill kinetic analysis relative to control
Staphylococcus aureus [24] = assay: Potentiation of norfloxacin-induced antibacterial activity against clinical isolates of methicillin-resistant Staphylococcus aureus ST10760 assessed as norfloxacin MIC by checkerboard assay
Staphylococcus aureus [25] = assay: Potentiation of norfloxacin-induced antibacterial activity against clinical isolates of methicillin-resistant Staphylococcus aureus ST10760 assessed as reduction in norfloxacin MIC by checkerboard assay relative to control
Staphylococcus aureus [26] = assay: Potentiation of norfloxacin-induced antibacterial activity against clinical isolates of methicillin-resistant Staphylococcus aureus P4423 assessed as reduction in norfloxacin MIC by checkerboard assay relative to control
Staphylococcus aureus [27] = assay: Antibacterial activity against clinical isolates of methicillin-resistant Staphylococcus aureus ST2071 by checkerboard assay in presence of norfloxacin
Staphylococcus aureus [28] = assay: Ratio of MIC for clinical isolates of methicillin-resistant Staphylococcus aureus ST2071 to MIC for clinical isolates of methicillin-resistant Staphylococcus aureus ST2071 in presence of norfloxacin
Staphylococcus aureus [29] = assay: Antibacterial activity against clinical isolates of methicillin-resistant Staphylococcus aureus P4650 by checkerboard assay in presence of norfloxacin
Staphylococcus aureus [30] = assay: Antibacterial activity against clinical isolates of methicillin-resistant Staphylococcus aureus ST2071 by broth microdilution assay
Staphylococcus aureus [31] = assay: Potentiation of norfloxacin-induced antibacterial activity against clinical isolates of methicillin-resistant Staphylococcus aureus P4650 assessed as norfloxacin MIC by checkerboard assay
Staphylococcus aureus [32] = assay: Ratio of MIC for clinical isolates of methicillin-resistant Staphylococcus aureus P4629 to MIC for clinical isolates of methicillin-resistant Staphylococcus aureus P4629 in presence of norfloxacin
Staphylococcus aureus [33] = assay: Ratio of MIC for clinical isolates of methicillin-resistant Staphylococcus aureus P4650 to MIC for clinical isolates of methicillin-resistant Staphylococcus aureus P4650 in presence of norfloxacin
Staphylococcus aureus [34] = assay: Ratio of MIC for clinical isolates of methicillin-resistant Staphylococcus aureus ST10342 to MIC for clinical isolates of methicillin-resistant Staphylococcus aureus ST10342 in presence of norfloxacin

Structure (SMILES)	MIC (Staphylococcus aureus [1]) [µg/mL]	MIC (Staphylococcus aureus [2]) [µg/mL]	MIC (Staphylococcus aureus [3]) [µg/mL]	MIC (Staphylococcus aureus [4]) [µg/mL]	MIC (Staphylococcus aureus [5]) [µg/mL]	MIC (Staphylococcus aureus [7]) [µg/mL]	fractional inhibitory concentration index (FICI) (Staphylococcus aureus [8])	fractional inhibitory concentration index (FICI) (Staphylococcus aureus [9])	fractional inhibitory concentration index (FICI) (Staphylococcus aureus [10])	MIC (Staphylococcus aureus [11]) [µg/mL]	fold change (FC) (Staphylococcus aureus [12])	fold change (FC) (Staphylococcus aureus [15])	MIC (Staphylococcus aureus [16]) [µg/mL]	fold change (FC) (Staphylococcus aureus [17])	fractional inhibitory concentration index (FICI) (Staphylococcus aureus [18])	fold change (FC) (Staphylococcus aureus [19])	MIC (Staphylococcus aureus [20]) [µg/mL]	MIC (Staphylococcus aureus [21]) [µg/mL]	fold change (FC) (Staphylococcus aureus [22])	MIC (Staphylococcus aureus [30]) [µg/mL]	further results
COc1cc(OC)c([C@@H]2COc3c(cc(/C=C/C(=O)c4ccc(OC)c(OC)c4)c4c3C=CC(C)(C)O4)C2)cc1/C=C/C(=O)c1ccc(OC)c(OC)c1	25 (≈ 34.1 µM)	62.5	25 (≈ 34.1 µM)	12.5 (≈ 17.1 µM)	62.5	12.5 (≈ 17.1 µM)	0.375	0.75	0.5	125	2	4	125	4	0.75	4	12.5 (≈ 17.1 µM)	12.5 (≈ 17.1 µM)	4	25 (≈ 34.1 µM)	Ratio (Staphylococcus aureus [6]): 4; Ratio (Staphylococcus aureus [13]): 4; fold change (FC) (Staphylococcus aureus [14]): <=3; fold change (FC) (Staphylococcus aureus [23]): <=1.52; MIC (Staphylococcus aureus [24]): 62.5 µg/mL; fold change (FC) (Staphylococcus aureus [25]): 8; fold change (FC) (Staphylococcus aureus [26]): 4; fractional inhibitory concentration index (FICI) (Staphylococcus aureus [27]): 0.5; Ratio (Staphylococcus aureus [28]): 4; fractional inhibitory concentration index (FICI) (Staphylococcus aureus [29]): 0.75; MIC (Staphylococcus aureus [31]): 62.5 µg/mL
CC1(C)C=Cc2c(ccc3c2OC[C@@H](c2ccc(O)cc2O)C3)O1 [GLABRIDIN]	12.5 (≈ 38.5 µM)	125	12.5 (≈ 38.5 µM)	12.5 (≈ 38.5 µM)	125	12.5 (≈ 38.5 µM)	0.75	1	0.5	125	2	4	250	4	1	2	3.12 (≈ 9.63 µM)	12.5 (≈ 38.5 µM)	2	12.5 (≈ 38.5 µM)	Ratio (Staphylococcus aureus [32]): 4; Ratio (Staphylococcus aureus [33]): 4; fold change (FC) (Staphylococcus aureus [23]): <=1.52; MIC (Staphylococcus aureus [24]): 125 µg/mL; fold change (FC) (Staphylococcus aureus [25]): 4; fold change (FC) (Staphylococcus aureus [26]): 2; fractional inhibitory concentration index (FICI) (Staphylococcus aureus [27]): 0.75; fractional inhibitory concentration index (FICI) (Staphylococcus aureus [29]): 0.5; MIC (Staphylococcus aureus [31]): 62.5 µg/mL
COc1ccc([C@@H]2COc3c(cc(/C=C/C(=O)c4ccco4)c4c3C=CC(C)(C)O4)C2)c(OC)c1	12.5 (≈ 26.5 µM)	31.2	25 (≈ 52.9 µM)	12.5 (≈ 26.5 µM)	31.2	12.5 (≈ 26.5 µM)	0.375	0.5	0.625	125	2	4	62.5	4	0.5	8	12.5 (≈ 26.5 µM)	12.5 (≈ 26.5 µM)	8	25 (≈ 52.9 µM)	Ratio (Staphylococcus aureus [32]): 4; Ratio (Staphylococcus aureus [6]): 4; Ratio (Staphylococcus aureus [33]): 4; Ratio (Staphylococcus aureus [13]): 4; fold change (FC) (Staphylococcus aureus [14]): <=3; fold change (FC) (Staphylococcus aureus [23]): <=1.52; MIC (Staphylococcus aureus [24]): 62.5 µg/mL; fold change (FC) (Staphylococcus aureus [25]): 8; fold change (FC) (Staphylococcus aureus [26]): 8; Ratio (Staphylococcus aureus [34]): 4; fractional inhibitory concentration index (FICI) (Staphylococcus aureus [27]): 0.375; Ratio (Staphylococcus aureus [28]): 4; fractional inhibitory concentration index (FICI) (Staphylococcus aureus [29]): 0.625; MIC (Staphylococcus aureus [31]): 62.5 µg/mL
COc1ccc([C@@H]2COc3c(cc(/C=C/C(=O)c4ccc(OC)c(OC)c4)c4c3C=CC(C)(C)O4)C2)c(OC)c1	50 (≈ 92.1 µM)	62.5	50 (≈ 92.1 µM)	50 (≈ 92.1 µM)	31.2	50 (≈ 92.1 µM)	0.75	0.375	0.375	62.5	2	4	125	8	0.75	8	25 (≈ 46.1 µM)	50 (≈ 92.1 µM)	4	50 (≈ 92.1 µM)	Ratio (Staphylococcus aureus [32]): <=4; Ratio (Staphylococcus aureus [33]): <=4; fold change (FC) (Staphylococcus aureus [14]): <=4; fold change (FC) (Staphylococcus aureus [23]): <=1.52; MIC (Staphylococcus aureus [24]): 125 µg/mL; fold change (FC) (Staphylococcus aureus [25]): 4; fold change (FC) (Staphylococcus aureus [26]): 4; Ratio (Staphylococcus aureus [34]): <=4; fractional inhibitory concentration index (FICI) (Staphylococcus aureus [27]): 0.5; Ratio (Staphylococcus aureus [28]): <=4; fractional inhibitory concentration index (FICI) (Staphylococcus aureus [29]): 0.5; MIC (Staphylococcus aureus [31]): 62.5 µg/mL
COc1cc(OC)c([C@@H]2COc3c(cc(/C=C/C(=O)c4ccc[nH]4)c4c3C=CC(C)(C)O4)C2)cc1/C=C/C(=O)c1ccc[nH]1	50 (≈ 84.6 µM)		50 (≈ 84.6 µM)	50 (≈ 84.6 µM)		50 (≈ 84.6 µM)											50 (≈ 84.6 µM)	50 (≈ 84.6 µM)		50 (≈ 84.6 µM)	
COc1ccc(C(=O)/C=C/c2cc3c(c4c2OC(C)(C)C=C4)OC[C@@H](c2ccc(OC)cc2OC)C3)c(OC)c1	> 100		> 100	> 100		> 100											> 100	> 100		> 100	
